Measurements from patent US10508109B2 (priority 2015, dated 2019).
Counter-ions that a name gives are not always drawn. Like-named read-outs stand apart in the source and are kept apart here.

Key:
HCT-116 = assay: Cell-based assay, anti-proliferative activity (Cell Counting Kit-8, 72 hours); conditions: Homo sapiens, HCT-116 cells, read-out: IC50 (μM) HCT-116
How it was run: (§1)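 Anti-proliferative IC50 obtained from 96-well cultures treated 72 h with inhibitor at 0–100 micro-M, growth assessed by a CCK-8 colorimetric readout.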

PC14 = assay: as above; conditions: Homo sapiens, PC-14, PC14 cells, read-out: IC50 (μM) PC14
How it was run: as §1

CCD-18Co = assay: as above; conditions: Homo sapiens, CCD-18Co cells, read-out: IC50 (μM) CCD-18Co
How it was run: as §1

HFL1 = assay: as above; conditions: Homo sapiens, HFL1 cells, read-out: IC50 (μM) HFL1
How it was run: as §1

A549 = assay: as above; conditions: Homo sapiens, A549 cells, read-out: IC50 (μM) A549
How it was run: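 Growth read-out after inhibitor treatment of plated cells; potency expressed as IC50.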

SUV39H2 = SUV39H2 (Homo sapiens (Human), UniProt Q9H5I1); conditions: read-out: IC50 (μM) Suv 39H2 assay; enzyme assay
Chain of SUV39H2 (Q9H5I1 whole entry): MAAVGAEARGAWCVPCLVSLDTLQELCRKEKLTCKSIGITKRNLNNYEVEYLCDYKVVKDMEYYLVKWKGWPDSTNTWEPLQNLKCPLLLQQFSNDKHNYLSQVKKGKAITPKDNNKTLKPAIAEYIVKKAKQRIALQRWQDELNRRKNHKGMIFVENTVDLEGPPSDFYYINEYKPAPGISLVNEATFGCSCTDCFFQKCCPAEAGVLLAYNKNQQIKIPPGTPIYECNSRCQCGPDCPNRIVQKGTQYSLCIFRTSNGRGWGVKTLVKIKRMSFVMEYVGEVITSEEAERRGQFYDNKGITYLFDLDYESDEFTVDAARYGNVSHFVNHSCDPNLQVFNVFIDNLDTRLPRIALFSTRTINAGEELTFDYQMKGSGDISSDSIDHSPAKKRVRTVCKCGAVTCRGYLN

Row | SMILES | IC50 (HCT-116; Cell Counting Kit-8, 72 hours) [µM] | IC50 (PC14; Cell Counting Kit-8, 72 hours) [µM] | IC50 (CCD-18Co; Cell Counting Kit-8, 72 hours) [µM] | IC50 (HFL1; Cell Counting Kit-8, 72 hours) [µM] | IC50 (A549; Cell Counting Kit-8, 72 hours) [µM] | IC50 (SUV39H2) [µM] | IC50 (HCT-116; 72 hours, Cell Counting Kit-8) [µM] | IC50 (PC14; 72 hours, Cell Counting Kit-8) [µM] | IC50 (CCD-18Co; 72 hours, Cell Counting Kit-8) [µM] | IC50 (HFL1; 72 hours, Cell Counting Kit-8) [µM] | IC50 (A549; 72 hours, Cell Counting Kit-8) [µM]
1 | CCOC(=O)CCN1CC=C(c2ccn3cc(-c4cc(Cl)c(OC)cc4OC)nc3c2)CC1 [Example 140, ethyl 3-(4-(2-(5-chloro-2,4-dimethoxyphenyl)imidazo[1,2-a]pyridin-7-yl)-5,6-dihydropyridin-1(2H)-yl)propanoate] | 16 | 12 | 56 | 27 | 25 | 0.0578 |  |  |  |  | 
2 | COc1cc(OC)c(-c2cn3cc(Br)c(N4CCNCC4)cc3n2)cc1Cl [Example 217, 6-bromo-2-(5-chloro-2,4-dimethoxyphenyl)-7-(piperazin-1-yl)-imidazo[1,2-a]pyridine] |  |  |  |  |  | 0.0416 | 5.5 | 3.4 | 4.3 | 4.9 | 7.2
3 | CC[C@@H](C)[C@H](NC(=O)OC(C)(C)C)C(=O)Nc1ccn2cc(-c3cc(Cl)c(OC)cc3OC)nc2c1 [Example 257, tert-butyl ((2S,3R)-1-((2-(5-chloro-2,4-dimethoxyphenyl)imidazo[1,2-a]-pyridin-7-yl)amino)-3-methyl-1-oxopentan-2-yl)carbamate] |  |  |  |  |  | 0.0435 | 5.5 | 3 | 5.1 | 5.2 | 5
4 | COc1cc(OCCCN(C)C)c(-c2cn3ccc(N4CCN(S(=O)(=O)C5CC5)CC4)cc3n2)cc1Cl [Example 160, 3-(4-Chloro-2-{7-[4-(cyclopropylsulfonyl)piperazin-1-yl]imidazo[1,2-a]pyridin-2-yl}-5-methoxyphenoxy)-N,N-dimethylpropan-1-amine] | 1.2 | 1.9 | 2.9 | 1.5 | 1.4 | 0.0277 |  |  |  |  | 
5 | COc1cc(OC)c(-c2cn3ccc(C4CCC(N)CC4)cc3n2)cc1Cl (stereo not drawn) [Example 125, 4-(2-(5-chloro-2,4-dimethoxyphenyl)imidazo[1,2-a]pyridin-7-yl)-cyclohexanamine] | 2.7 | 5 | 2.9 | 2.7 | 2.3 | 0.0651 |  |  |  |  | 
6 | COc1cc(OC)c(-c2cn3ccc(N4CCN(S(=O)(=O)C5CC5)C(COCCN(C)C)C4)cc3n2)cc1Cl (stereo not drawn) [Example 245, 2-((4-(2-(5-chloro-2,4-dimethoxyphenyl)imidazo[1,2-a]pyridin-7-yl)-1-(cyclopropylsulfonyl)piperazin-2-yl)methoxy)-N,N-dimethylethanamine] |  |  |  |  |  | 0.00863 | 9.4 | 5.1 | 5 | 5.4 | 5.5
7 | COc1cc(OC)c(-c2cn3ccc(N4CC[C@H](NCc5ccccc5)C4)cc3n2)cc1Cl [Example 301, (S)—N-benzyl-1-(2-(5-chloro-2,4-dimethoxyphenyl)imidazo[1,2-a]pyridin-7-yl)pyrrolidin-3-amine] |  |  |  |  |  | 0.0107 | 0.79 | 1.5 | 1.1 | 0.69 | 1.4
8 | COc1cc(OCCCN(C)C)c(-c2cn3ccc(N4CCCN(C(=O)OC(C)(C)C)CC4)cc3n2)cc1Cl [Example 211, tert-butyl 4-(2-{5-chloro-2-[3-(dimethylamino)propoxy]-4-methoxyphenyl}imidazo[1,2-a]pyridin-7-yl)-1,4-diazepane-1-carboxylate] | 2.4 | 0.8 | 1.4 | 1.4 | 2.9 | 0.0563 |  |  |  |  | 
9 | COc1cc(OCSC)c(-c2cn3ccc(N4CCN(S(=O)(=O)C5CC5)CC4)cc3n2)cc1Cl [Example 255, 2-(5-chloro-4-methoxy-2-((methylthio)methoxy)phenyl)-7-(4-(cyclopropylsulfonyl)piperazin-1-yl)imidazo[1,2-a]pyridine] |  |  |  |  |  | 0.00672 | 2.3 | 1.5 | 1.9 | 1.7 | 2.5
10 | COc1cc(OC)c(-c2cn3ccc(N4CCN(CCN5CCCC5)CC4)cc3n2)cc1Cl [Example 143, 2-(5-chloro-2,4-dimethoxyphenyl)-7-(4-(2-(pyrrolidin-1-yl)ethyl)piperazin-1-yl)imidazo[1,2-a]pyridine] | 8.1 | 4.4 | 2.7 | 8.5 | 4 | 0.0044 |  |  |  |  | 
11 | COc1cc(OC)c(-c2cn3ccc(N4CCC(O)CC4)cc3n2)cc1Cl [Example 231, 1-(2-(5-chloro-2,4-dimethoxyphenyl)imidazo[1,2-a]pyridine-7-yl)piperidin-4-ol] |  |  |  |  |  | 0.00488 | 10 | 3.9 | 9.1 | 6.7 | 10
12 | COc1cc(OC)c(-c2cn3ccc(N4CCCN(S(=O)(=O)C(F)(F)F)CC4)cc3n2)cc1Cl [Example 188, 2-(5-chloro-2,4-dimethoxyphenyl)-7-{4-[(trifluoromethyl)sulfonyl]-1,4-diazepan-1-yl}imidazo[1,2-a]pyridine] | 1.6 | 1.6 | 1.4 | 1.5 | 1.6 | 0.0369 |  |  |  |  | 
13 | COc1cc(OCCCN(C)C)c(-c2cn3ccc(N4CCN(S(=O)(=O)C(C)C)CC4)cc3n2)cc1Cl [Example 197, 3-(4-Chloro-2-(7-(4-(isopropylsulfonyl)piperazin-1-yl)imidazo[1,2-a]pyridin-2-yl)-5-methoxyphenoxy)-N,N-dimethylpropan-1-amine] | 3.8 | 2.3 | 2.9 | 2.9 | 3.4 | 0.0144 |  |  |  |  | 
14 | CCCS(=O)(=O)NC1CCN(c2ccn3cc(-c4cc(Cl)c(OC)cc4OC)nc3c2)CC1 [Example 174, N-{1-[2-(5-chloro-2,4-dimethoxyphenyl)imidazo[1,2-a]pyridin-7-yl]piperidin-4-yl}propane-1-sulfonamide] | 1.8 | 2.3 | 2 | 1.7 | 3 | 0.0104 |  |  |  |  | 
15 | COc1cc(OC)c(-c2cn3ccc(N4CCOCC4)cc3n2)cc1Cl [Example 12, 4-(2-(5-chloro-2,4-dimethoxyphenyl)imidazo[1,2-a]pyridin-7-yl)morpholine hydrobromide] | 5.1 | 2.9 | 9 | 6.8 | 6.9 | 0.012 |  |  |  |  | 
16 | CCS(=O)(=O)N1CCN(c2ccn3cc(-c4cc(Cl)c(OC)cc4OC)nc3c2)CC1 [Example 172, 2-(5-chloro-2,4-dimethoxyphenyl)-7-[4-(ethylsulfonyl)piperazin-1-yl]imidazo[1,2-a]pyridine] | 1.2 | 1.6 | 1.8 | 1.8 | 1.9 | 0.0125 |  |  |  |  | 
17 | COc1cc(OC)c(-c2cn3cc(NCCN)c(N4CCNCC4)nc3n2)cc1Cl [Example 223, N^1-(2-(5-chloro-2,4-dimethoxy-phenyl)-7-(piperazin-1-yl)imidazo[1,2-a]pyrimidin-6-yl)ethane-1,2-diamine] |  |  |  |  |  | 0.00866 | 10 | 10 | 10 | 10 | 10
18 | COc1cc(OC)c(-c2cn3ccc(N4CCN(CCN5CCN(C(=O)OC(C)(C)C)CC5)CC4)cc3n2)cc1Cl [Example 136, tert-butyl 4-(2-(4-(2-(5-chloro-2,4-dimethoxyphenyl)imidazo[1,2-a]pyridin-7-yl)piperazin-1-yl)ethyl)piperazine-1-carboxylate] | 1.5 | 2.2 | 1.8 | 1.8 | 1.5 | 0.0166 |  |  |  |  | 
19 | COc1cc(OC)c(-c2cn3ccc(N4CC[C@H](NCc5ccc(C(F)(F)F)cc5)C4)cc3n2)cc1Cl [Example 303, (S)-1-(2-(5-chloro-2,4-dimethoxyphenyl)imidazo[1,2-a]pyridin-7-yl)-N-(4-(trifluoromethyl)benzyl)pyrrolidin-3-amine] |  |  |  |  |  | 0.0278 | 0.7 | 0.95 | 0.86 | 0.68 | 1
20 | COc1cc(OC)c(-c2cn3ccc(N4CCN(S(=O)(=O)N(C)C)CC4)cc3n2)cc1Cl [Example 171, 4-[2-(5-chloro-2,4-dimethoxyphenyl)imidazo[1,2-a]pyridin-7-yl]-N,N-dimethylpiperazine-1-sulfonamide] | 0.94 | 2 | 0.84 | 1.2 | 0.83 | 0.0135 |  |  |  |  | 
21 | CCOP(=O)(CCN1CCN(c2ccn3cc(-c4cc(Cl)c(OC)cc4OCCCN(C)C)nc3c2)CC1)OCC [Example 219, diethyl (2-(4-(2-(5-chloro-2-(3-(dimethylamino)propoxy)-4-methoxyphenyl)-imidazo[1,2-a]pyridin-7-yl)piperazin-1-yl)ethyl)phosphonate] |  |  |  |  |  | 0.0201 | 10 | 7.6 | 10 | 7.4 | 10
